Laboratory results reported in PubChem BioAssay AID248 (DTP/NCI, 2004).
Values joined by “and” are separate entries in the source; they are usually repeats but may differ in a detail not shown here. Equal entries are not always repeated. Inconclusive results and toxic doses are left out. Cut-off read from the data, not from the text of the source: active = T/C of 150% or more; inactive = T/C below 125%.

Tested on: L1210 leukemia ip in BDF1 mice, survival T/C
Test: NCI In Vivo Anticancer Drug Screen. Data for tumor model L1210 Leukemia (intraperitoneal) in B6D2F1 (BDF1) mice
Settings: endpoint: mean survival time, higher = longer survival
Summary of the method: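 Transplanted-tumor mice were given test agent; controls received vehicle only. Survival readings from the two groups were divided (treated over control).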

[1] = dose: 100.0 mg/kg/injection, schedule: Q01DX001 (ip), vehicle: saline
[2] = dose: 200.0 mg/kg/injection, schedule: Q01DX001 (ip), vehicle: saline
[3] = dose: 400.0 mg/kg/injection, schedule: Q01DX001 (ip), vehicle: saline
[4] = dose: 100.0 mg/kg/injection, schedule: Q01DX001 (ip), vehicle: acetone
[5] = dose: 100.0 mg/kg/injection, schedule: Q04DX002 (ip), vehicle: Klucel (hydroxypropylcellulose) (HPC)
[6] = dose: 100.0 mg/kg/injection, schedule: Q04DX002 (ip), vehicle: saline with Tween-80
[7] = dose: 200.0 mg/kg/injection, schedule: Q04DX002 (ip), vehicle: saline with Tween-80
[8] = dose: 400.0 mg/kg/injection, schedule: Q04DX002 (ip), vehicle: saline with Tween-80
[9] = dose: 100.0 mg/kg/injection, schedule: Q01DX009 (ip), vehicle: saline with Tween-80
[10] = dose: 200.0 mg/kg/injection, schedule: Q01DX009 (ip), vehicle: saline with Tween-80
[11] = dose: 400.0 mg/kg/injection, schedule: Q01DX009 (ip), vehicle: saline with Tween-80
[12] = dose: 50.0 mg/kg/injection, schedule: Q01DX009 (ip), vehicle: Klucel (hydroxypropylcellulose) (HPC)
[13] = dose: 100.0 mg/kg/injection, schedule: Q01DX009 (ip), vehicle: Klucel (hydroxypropylcellulose) (HPC)
[14] = dose: 100.0 mg/kg/injection, schedule: Q04DX003 (ip), vehicle: Klucel (hydroxypropylcellulose) (HPC)
[15] = dose: 200.0 mg/kg/injection, schedule: Q01DX009 (ip), vehicle: Klucel (hydroxypropylcellulose) (HPC)
[16] = dose: 200.0 mg/kg/injection, schedule: Q04DX003 (ip), vehicle: Klucel (hydroxypropylcellulose) (HPC)
[17] = dose: 400.0 mg/kg/injection, schedule: Q04DX003 (ip), vehicle: Klucel (hydroxypropylcellulose) (HPC)
[18] = dose: 50.0 mg/kg/injection, schedule: Q01DX001 (ip), vehicle: Klucel (hydroxypropylcellulose) (HPC)

Measured: T/C

O=[N+]([O-])c1ccn(O)c(=NC2CCCCC2)c1
inactive: [1] 98 % of control | [2] 93 % of control | [3] 100 % of control

C[N+]1(CC(O)COc2ccc(Nc3ccc(N)c4c3C(=O)c3ccccc3C4=O)cc2)CCOCC1 (centres undefined)
inactive: [4] 90 % of control

CN(C)C(=S)SSSC(=S)N(C)C
inactive: dose: 25.0 mg/kg/injection, schedule: Q04DX002 (ip), vehicle: Klucel (hydroxypropylcellulose) (HPC) 101 % of control | dose: 50.0 mg/kg/injection, schedule: Q04DX002 (ip), vehicle: Klucel (hydroxypropylcellulose) (HPC) 94 % of control | [5] 93 % of control and 105 % of control

CC(C)(C)C(=O)NO
inactive: [5] 110 % of control | dose: 200.0 mg/kg/injection, schedule: Q04DX002 (ip), vehicle: Klucel (hydroxypropylcellulose) (HPC) 90 % of control | dose: 400.0 mg/kg/injection, schedule: Q04DX002 (ip), vehicle: Klucel (hydroxypropylcellulose) (HPC) 102 % of control

NNP(=O)(Oc1ccccc1)Oc1ccccc1
inactive: dose: 50.0 mg/kg/injection, schedule: Q01DX009 (ip), vehicle: saline 108 % of control | dose: 75.0 mg/kg/injection, schedule: Q01DX001 (ip), vehicle: acetone 110 % of control | dose: 100.0 mg/kg/injection, schedule: Q01DX009 (ip), vehicle: saline 124 % of control | dose: 150.0 mg/kg/injection, schedule: Q01DX001 (ip), vehicle: acetone 103 % of control | dose: 300.0 mg/kg/injection, schedule: Q01DX001 (ip), vehicle: acetone 97 % of control

COCCN=Cc1ccc(N(C)C)cc1
inactive: [6] 103 % of control | [7] 100 % of control | [8] 100 % of control

COP(=NC(C)=O)(OC)OC
inactive: [9] 101 % of control | dose: 100.0 mg/kg/injection, schedule: Q04DX003 (ip), vehicle: saline with Tween-80 97 % of control | [10] 101 % of control | dose: 200.0 mg/kg/injection, schedule: Q04DX003 (ip), vehicle: saline with Tween-80 104 % of control | [11] 102 % of control | dose: 400.0 mg/kg/injection, schedule: Q04DX003 (ip), vehicle: saline with Tween-80 106 % of control

Nc1ncnc2c1ncn2C1OC(CO)C(O)C(O)C1O (centres undefined)
inactive: [1] 103 % of control [middle of 4 runs] | [2] 100 % of control [middle of 4 runs] | [3] 100 % of control [middle of 4 runs]

CC(C)(C)OC(=O)CCC(NC(=O)OCc1ccccc1)C(=O)NN (centres undefined)
inactive: [12] 100 % of control | dose: 75.0 mg/kg/injection, schedule: Q01DX001 (ip), vehicle: Klucel (hydroxypropylcellulose) (HPC) 88 % of control | [13] 110 % of control | [14] 99 % of control | dose: 150.0 mg/kg/injection, schedule: Q01DX001 (ip), vehicle: Klucel (hydroxypropylcellulose) (HPC) 108 % of control | [15] 100 % of control | [16] 106 % of control | dose: 300.0 mg/kg/injection, schedule: Q01DX001 (ip), vehicle: Klucel (hydroxypropylcellulose) (HPC) 92 % of control | [17] 105 % of control

CCC(=O)Nc1cccc(OC(=O)NC(C)C)c1
inactive: [9] 95 % of control | [10] 90 % of control

Cc1ccc2c(C)c3ccc4ccccc4c3c[n+]2c1
inactive: dose: 3.13 mg/kg/injection, schedule: Q01DX009 (ip), vehicle: saline with Tween-80 98 % of control | dose: 6.2 mg/kg/injection, schedule: Q04DX003 (ip), vehicle: Klucel (hydroxypropylcellulose) (HPC) 111 % of control | dose: 6.25 mg/kg/injection, schedule: Q01DX009 (ip), vehicle: saline with Tween-80 107 % of control | dose: 12.5 mg/kg/injection, schedule: Q01DX009 (ip), vehicle: saline with Tween-80 107 % of control and 113 % of control | dose: 12.5 mg/kg/injection, schedule: Q04DX003 (ip), vehicle: Klucel (hydroxypropylcellulose) (HPC) 104 % of control | dose: 25.0 mg/kg/injection, schedule: Q04DX003 (ip), vehicle: Klucel (hydroxypropylcellulose) (HPC) 111 % of control | dose: 50.0 mg/kg/injection, schedule: Q04DX003 (ip), vehicle: Klucel (hydroxypropylcellulose) (HPC) 117 % of control | [1] 123 % of control | [2] 104 % of control | [3] 104 % of control

C/C=N\O
inactive: dose: 25.0 mg/kg/injection, schedule: Q01DX001 (ip), vehicle: saline 112 % of control | dose: 50.0 mg/kg/injection, schedule: Q01DX001 (ip), vehicle: saline 102 % of control | [1] 102 % of control

CC(=O)Nc1ccc(C(C)C)cc1
inactive: [13] 103 % of control | [15] 95 % of control | dose: 400.0 mg/kg/injection, schedule: Q01DX009 (ip), vehicle: Klucel (hydroxypropylcellulose) (HPC) 94 % of control

Oc1ccc(Cl)cc1/C=N/N1CCN(/N=C/c2cc(Cl)ccc2O)CC1
inactive: [1] 90 % of control | [2] 90 % of control | [3] 90 % of control

C[n+]1c2ccccc2c(-c2c3ccccc3[n+](C)c3ccccc23)c2ccccc21
inactive: dose: 12.5 mg/kg/injection, schedule: Q01DX001 (ip), vehicle: Klucel (hydroxypropylcellulose) (HPC) 102 % of control | dose: 25.0 mg/kg/injection, schedule: Q01DX001 (ip), vehicle: Klucel (hydroxypropylcellulose) (HPC) 98 % of control | [18] 98 % of control

Cc1cc(C(c2ccccc2)c2ccccc2)cc(C)c1OCc1ccccc1
inactive: [18] 93 % of control | dose: 100.0 mg/kg/injection, schedule: Q01DX001 (ip), vehicle: Klucel (hydroxypropylcellulose) (HPC) 93 % of control | dose: 200.0 mg/kg/injection, schedule: Q01DX001 (ip), vehicle: Klucel (hydroxypropylcellulose) (HPC) 90 % of control

CCOC(=O)CNC(=O)Oc1ccc2c(C)cc(=O)oc2c1
inactive: dose: 25.0 mg/kg/injection, schedule: Q01DX009 (ip), vehicle: carboxymethylcellulose (CMC) 100 % of control and 106 % of control | dose: 50.0 mg/kg/injection, schedule: Q01DX009 (ip), vehicle: carboxymethylcellulose (CMC) 98 % of control and 100 % of control | dose: 100.0 mg/kg/injection, schedule: Q01DX009 (ip), vehicle: carboxymethylcellulose (CMC) 93 % of control and 97 % of control | dose: 100.0 mg/kg/injection, schedule: Q04DX002 (ip), vehicle: carboxymethylcellulose (CMC) 98 % of control and 102 % of control | dose: 100.0 mg/kg/injection, schedule: Q04DX003 (ip), vehicle: carboxymethylcellulose (CMC) 92 % of control and 90 % of control | dose: 200.0 mg/kg/injection, schedule: Q01DX009 (ip), vehicle: carboxymethylcellulose (CMC) 100 % of control | dose: 200.0 mg/kg/injection, schedule: Q04DX002 (ip), vehicle: carboxymethylcellulose (CMC) 93 % of control and 97 % of control | dose: 200.0 mg/kg/injection, schedule: Q04DX003 (ip), vehicle: carboxymethylcellulose (CMC) 92 % of control and 87 % of control | dose: 400.0 mg/kg/injection, schedule: Q04DX002 (ip), vehicle: carboxymethylcellulose (CMC) 104 % of control and 105 % of control | dose: 400.0 mg/kg/injection, schedule: Q04DX003 (ip), vehicle: carboxymethylcellulose (CMC) 94 % of control and 101 % of control

O=[N+]([O-])c1cccn2cnnc12
inactive: [4] 92 % of control

NC(=O)C1NC(=O)NC1=O (centres undefined)
inactive: [9] 88 % of control | [10] 93 % of control | [11] 97 % of control

CC(C)(C)C(O)c1ccccc1 (centres undefined)
inactive: dose: 25.0 mg/kg/injection, schedule: Q04DX002 (ip), vehicle: saline with Tween-80 97 % of control | dose: 50.0 mg/kg/injection, schedule: Q04DX002 (ip), vehicle: saline with Tween-80 93 % of control | [6] 93 % of control and 92 % of control | [7] 93 % of control and 95 % of control | [8] 95 % of control

COc1cc(C=O)ccc1OC(=O)Nc1ccc(Cl)cc1C(F)(F)F
inactive: dose: 50.0 mg/kg/injection, schedule: Q01DX009 (ip), vehicle: saline with Tween-80 89 % of control | [9] 100 % of control | [10] 96 % of control

O=CNNc1ccc([N+](=O)[O-])cc1
inactive: [12] 97 % of control | [13] 100 % of control | [14] 94 % of control | [15] 86 % of control | [16] 94 % of control | [17] 94 % of control

COc1ccc(CCNC(=O)Cc2ccc(O)cc2)cc1OC
inactive: dose: 100.0 mg/kg/injection, schedule: Q01DX001 (ip), vehicle: carboxymethylcellulose (CMC) 100 % of control | dose: 200.0 mg/kg/injection, schedule: Q01DX001 (ip), vehicle: carboxymethylcellulose (CMC) 102 % of control | dose: 400.0 mg/kg/injection, schedule: Q01DX001 (ip), vehicle: carboxymethylcellulose (CMC) 96 % of control
